{
  "source": "patent US11478527B2",
  "about": "“FGF receptor ligands for treating diabetes and obesity” (Albert Einstein College of Medicine, priority 2015, dated 2022)",
  "key": {"HFD-fed mice [1]": {"test_system": "HFD-fed mice", "settings": "U0126 thirty minutes before FGF19 injection", "procedure": "ERK1/2 signaling involved in FGF19-glucose metabolism regulation. […] Mice were treated twice with FGF19 (starting 16 hours after fasting and 6.5 hours apart) and tissues were collected 90 minutes after the last ip injection (2C) Analysis of co-localization between Npy-hrGFP positive neurons (lighter gray) and p-ERK1/2 positive cells (darker gray) in 24 h fasted ob/ob Npy-hrGFP mice following intraperitoneal injections of FGF19. (2D) Quantification of Npy-hrGFP positive neurons that colocalize with pERK1/2 staining in ARC (Bregma −1.7 to −1.9 mm) of ob/ob Npy-hrGFP mice (10 sections from 3 mice were examined in each group). (2E) Representative sections showing absence of co-localization between Pomc-eGFP positive neurons (lighter gray) and p-ERK1/2 positive cells (darker gray) in 24 h fasted ob/ob Pomc-eGFP mice following intraperitoneal injections of FGF19. *P<0.05, ***P<0.005.\nIt was assessed whether increased ERK1/2 activation could mediate the glucose lowering effect of FGF19."}, "8 month old outbred mice": {"test_system": "8 month old outbred mice", "assay": "Oral glucose tolerance test after intraparenchymal injection of peptide into the mediobasal hypothalamus", "format": "in vivo", "protocol": "A peptide of 13 amino acids ([…]) (SEQ ID NO:4) was synthesized based on the conserved sequences between the FGF8 and FGF17 b splice isoforms and the helical nature of this region of FGF8 based on a published crystal structure. This peptide was injected intraparenchymally into the mediobasal hypothalamus of 8 month old outbred mice. Having been fasted overnight, the mice were subjected to an oral glucose tolerance test (2 mg/g of glucose) using a crossover design to obtain a control condition. […] With aCSF, the median area under the curve for the 3 hour GTT was 43,747 mg-min/dL whereas it was […] with F8b13. Blood glucose concentrations were not different before the glucose load. These FGF derived peptide antagonists are useful as therapeutic agents in diabetes and obesity conditions."}, "HFD-fed mice [2]": {"test_system": "HFD-fed mice", "settings": "FGF19 injected centrally and peripherally; previously shown (3); cited from earlier work"}, "[3]": {"test_system": "hypothalamic AGRP/NPY neurons", "settings": "cited from earlier work"}, "AGRP/NPY neurons": {"test_system": "AGRP/NPY neurons", "assay": "Colocalization of phospho-ERK1/2 with Npy-GFP in ARC after intraperitoneal FGF19", "format": "in vivo", "settings": "24 h fasted Npy-hrGFP ob/ob mice", "protocol": "FIG. 2A-2E. ERK1/2 signaling involved in FGF19-glucose metabolism regulation.\nThe neuronal population targeted by FGF19 was investigated. 24 h fasted Npy-hrGFP transgenic mice deficient in leptin (Npy-hrGFP ob/ob), in which AGRP/NPY neurons in ARC appear GFP+, were injected intraperitoneally with FGF19 and the colocalization between phospho-ERK1/2 and Npy-GFP was analyzed in ARC. […] Overall, the data support that central FGF19 improved glucose metabolism required activation of ERK1/2 signaling and that AGRP/NPY neurons are a likely mediator of FGF19 action."}, "POMC neurons": {"test_system": "POMC neurons", "assay": "Colocalization of phospho-ERK1/2 with Pomc-eGFP in ARC after intraperitoneal FGF19", "format": "in vivo", "settings": "24 h fasted Pomc-eGFP ob/ob mice"}},
  "data": [
    {"compound": "N#CC(=C(/N)Sc1ccccc1N)/C(C#N)=C(\\N)Sc1ccccc1N", "note": "[U0126]", "values": [
      {"measurement": "effect of U0126 pre-treatment on the glucose lowering effect of FGF19", "setting": "HFD-fed mice [1]", "result": "blocked the glucose lowering effect of FGF19"}
    ]},
    {"compound": "PNFTQHVREQSLV (peptide fragment based on human sequence) [F8b13]", "values": [
      {"measurement": "glucose tolerance compared to the same mice after aCSF", "setting": "8 month old outbred mice; oral GTT 2 mg/g glucose, overnight fast, crossover design", "result": "improved glucose tolerance"},
      {"measurement": "median area under the curve for the 3 hour GTT", "setting": "8 month old outbred mice; oral GTT 2 mg/g glucose, overnight fast, crossover vs aCSF, intraparenchymal injection into mediobasal hypothalamus", "result": 33500, "unit": "mg·min/dL"},
      {"measurement": "blood glucose concentrations before the glucose load", "setting": "8 month old outbred mice; overnight fasted, vs aCSF", "result": "not different"}
    ]},
    {"compound": "FGF19: endocrine fibroblast growth factor", "values": [
      {"measurement": "glucose handling in obese mice (ob/ob) and high fat fed mice", "setting": "HFD-fed mice [2]", "result": "could improve glucose handling"},
      {"measurement": "induction of AGRP and NPY mRNA", "setting": "[3]; mice fasted overnight", "result": "prevented the induction of AGRP and NPY mRNA"},
      {"measurement": "ERK1/2 activation in hypothalamic AGRP/NPY neurons", "setting": "[3]; mouse, in vivo", "result": "activated ERK1/2"},
      {"measurement": "FOS in hypothalamic AGRP/NPY neurons", "setting": "[3]; mouse, in vivo", "result": "FOS was reduced"},
      {"measurement": "effects on POMC neurons", "setting": "[3]; mouse, in vivo", "result": "no effects"},
      {"measurement": "colocalization of FGF19-induced pERK1/2 staining with NPY-GFP+ neurons in ARC", "setting": "AGRP/NPY neurons", "result": "colocalized with NPY-GFP+ neurons"},
      {"measurement": "colocalization of Pomc-eGFP positive neurons with pERK1/2 staining in ARC", "setting": "POMC neurons", "result": "do not colocalize"}
    ]}
  ]
}
